Drawing on patent US11958834B2, “Inhibitors of human immunodeficiency virus replication” (VIIV HEALTHCARE UK (No. 5) LIMITED, priority 2018, dated 2024), this text covers CC50 and EC50 for six molecules.

The structures appear in SMILES notation. pEC50: −log10 of the molar value. Bounds are passed on as bounds.

Format in all cases: cell-based
A short description of series [1]: Compound cytotoxicity, XTT-based colorimetric assay. The settings on record: human; uninfected MT2 cells, day 4, XTT. How it is done: (§1) Compound cytotoxicity and the corresponding CC50 values were determined using the same protocol as described in the antiviral assay except that uninfected cells were used. Cytotoxicity was assessed on day 4 in uninfected MT2 cells by using a XTT (2,3-bis[2-Methoxy-4-nitro-5-sulfophenyl]-2H-tetrazolium-5-carboxyanilide inner salt)-based colorimetric assay (Sigma-Aldrich, St Louis, Mo.).

Series [2] relates to recombinant NL4-3 virus (Renilla luciferase) in MT-2 cells. The experiment in a line: HIV cell culture assay (antiviral activity, luciferase readout). Here is the method: HIV cell culture assay—MT-2 cells, 293T cells and the proviral DNA clone of NL4-3 virus were obtained from the NIH AIDS Research and Reference Reagent Program. MT-2 cells were propagated in RPMI 1640 media supplemented with 10% heat inactivated fetal bovine serum (FBS), 100 μg/ml penicillin G and up to 100 units/mL streptomycin. The 293T cells were propagated in DMEM media supplemented with 10% heat inactivated FBS, 100 μg/mL penicillin G and 100 μg/mL streptomycin. A recombinant NL4-3 proviral clone, in which a section of the nef gene was replaced with the Renilla luciferase gene, was used to make the reference virus used in these studies. The recombinant virus was prepared through transfection of the recombinant NL4-3 proviral clone into 293T cells using Transit-293 Transfection Reagent from Mirus Bio LLC (Madison, Wis.). Supernatant was harvested after 2-3 days and the amount of virus present was titered in MT-2 cells using luciferase enzyme activity as a marker by measuring luciferase enzyme activity. Luciferase was quantitated using the EnduRen Live Cell Substrate from Promega (Madison, Wis.). Antiviral activities of compounds toward the recombinant virus were quantified by measuring luciferase activity in MT-2 cells infected for 4-5 days with the recombinant virus in the presence of serial dilutions of the compound.
The 50% effective concentration (EC50) was calculated by using the exponential form of the median effect equation where (Fa)=1/[1+(ED50/drug conc.)^m] (Johnson V A, Byington R T. Infectivity Assay. In Techniques in HIV Research. ed. Aldovini A, Walker B D. 71-76. New York: Stockton Press. 1990).

The test system of the next series is uninfected MT2 cells. The experiment in a line: Compound cytotoxicity, XTT-based colorimetric assay. The note with it: day 4, XTT. How it is done: as §1
[3] abbreviates: Renilla, NL43, MT-2 cells infected for 4-5 days with recombinant NL4-3 Renilla luciferase virus.
[4] abbreviates: MT-2 cells infected for 4-5 days with recombinant NL4-3 Renilla luciferase virus.

In series [1], `Cn1nc(NS(C)(=O)=O)c2c(Cl)ccc(-n3c([C@@H](Cc4cc(F)cc(F)c4)NC(=O)Cn4nc(C(F)F)c5c4C(F)(F)[C@@H]4C[C@H]54)nccc3=O)c21` [Example 3, N—((R)-1-((1M)-1-(4-chloro-1-methyl-3-(methylsulfonamido)-1H-indazol-7-yl)-6-oxo-1,6-dihydropyrimidin-2-yl)-2-(3,5-difluorophenyl)ethyl)-2-((3bS,4aR)-3-(difluoromethyl)-5,5-difluoro-3b,4,4a,5-tetrahydro-1H-cyclopropa[3,4]cyclopenta[1,2-c]pyrazol-1-yl)acetamide] came in with a CC50 at 4 days above 1000 nM. In series [2] (setting [3]), the negative logarithm of the EC50 (pEC50) is 7.90.
`Cn1nc(NS(C)(=O)=O)c2c(Cl)ccc(-n3c([C@H](Cc4cc(F)cc(F)c4)NC(=O)Cn4nc(C(F)F)c5c4C(F)(F)[C@@H]4C[C@H]54)nccc3=O)c21` [Example 4] displayed a CC50 in the series with uninfected MT2 cells above 1000 nM. For the same molecule, in series [2] (setting [3]), the pEC50 was 9.26.
`Cn1nc(NS(C)(=O)=O)c2c(Cl)ccc(-n3c([C@H](Cc4cc(F)cc(F)c4)NC(=O)Cn4nc(C(F)F)c5c4C(F)(F)[C@@H]4C[C@H]54)nccc3=O)c21` (mixture of isomers) [Example 1, N—((S)-1-(1-(4-chloro-1-methyl-3-(methylsulfonamido)-1H-indazol-7-yl)-6-oxo-1,6-dihydropyrimidin-2-yl)-2-(3,5-difluorophenyl)ethyl)-2-((3bS,4aR)-3-(difluoromethyl)-5,5-difluoro-3b,4,4a,5-tetrahydro-1H-cyclopropa[3,4]cyclopenta[1,2-c]pyrazol-1-yl)acetamide]: the 50% cytotoxic concentration (CC50) at 4 days in series [1] is above 1000 nM. Besides, the negative-log EC50 (pEC50) in series [2] (setting [4]) was 7.49.
Molecule `Cn1nc(NS(C)(=O)=O)c2c(Cl)ccc(-n3c([C@H](Cc4cc(F)cc(F)c4)NC(=O)Cn4nc(C(F)F)c5c4C(F)(F)[C@@H]4C[C@H]54)nccc3=O)c21` (mixture of isomers) [Example 2, N—((S)-1-(1-(4-chloro-1-methyl-3-(methylsulfonamido)-1H-indazol-7-yl)-6-oxo-1,6-dihydropyrimidin-2-yl)-2-(3,5-difluorophenyl)ethyl)-2-((3bS,4aR)-3-(difluoromethyl)-5,5-difluoro-3b,4,4a,5-tetrahydro-1H-cyclopropa[3,4]cyclopenta[1,2-c]pyrazol-1-yl)acetamide] displayed a half-maximal cytotoxic concentration (CC50) in the series with uninfected MT2 cells above 1000 nM. Besides, the negative-log EC50 (pEC50) in series [2] (setting [4]) is 9.93.
`Cn1nc(NS(C)(=O)=O)c2c(Cl)ccc(-n3c([C@H](Cc4cc(F)cc(F)c4)NC(=O)Cn4nc(C(F)(F)F)c5c4C(F)(F)[C@@H]4C[C@H]54)nccc3=O)c21` [Example 6, N—((S)-1-((1P)-1-(4-chloro-1-methyl-3-(methylsulfonamido)-1H-indazol-7-yl)-6-oxo-1,6-dihydropyrimidin-2-yl)-2-(3,5-difluorophenyl)ethyl)-2-((3bS,4aR)-5,5-difluoro-3-(trifluoromethyl)-3b,4,4a,5-tetrahydro-1H-cyclopropa[3,4]cyclopenta[1,2-c]pyrazol-1-yl)acetamide] had a CC50 at 4 days in series [1] above 1000 nM. For the same molecule, the pEC50 in series [2] (setting [3]) is 9.31.
In the same order, the values of `Cn1nc(NS(C)(=O)=O)c2c(Cl)ccc(-n3c([C@@H](Cc4cc(F)cc(F)c4)NC(=O)Cn4nc(C(F)(F)F)c5c4C(F)(F)[C@@H]4C[C@H]54)nccc3=O)c21` [Example 5, N—((R)-1-((1M)-1-(4-chloro-1-methyl-3-(methylsulfonamido)-1H-indazol-7-yl)-6-oxo-1,6-dihydropyrimidin-2-yl)-2-(3,5-difluorophenyl)ethyl)-2-((3bS,4aR)-5,5-difluoro-3-(trifluoromethyl)-3b,4,4a,5-tetrahydro-1H-cyclopropa[3,4]cyclopenta[1,2-c]pyrazol-1-yl)acetamide] are above 1000 nM and 7.15.
